Activity calls are given as the source filed them. No cut-off for these calls is given here.
What was measured:
H9c2 [1] = test: Cytotoxicity against rat H9c2 cells assessed as cell viability upto 20 uM incubated for 24 hrs by CCK-8 assay; format: toxicity, cell-based; conditions: h9c2, 24 h
H9c2 [2] = test: Protection against H/R induced necrosis in rat H9c2 cells assessed as reduction in myocardial cell death preincubated with compound followed by hypoxic reoxygenation induction by Hoechst 33258/PI double staining based fluorescence microscopic analysis; format: functional; conditions: dose 5-20 µM
Rattus norvegicus [3] = test: Cardioprotective activity in myocardial ischemia/reperfusion induced rat injury model assessed as improvement in damaged ventricular systolic function at 5 to 20 mg/kg, iv measured after 30 mins; format: functional, organism-based; conditions: dose 5-20 mg/kg
H9c2 [4] = test: Cardioprotective activity against H/R induced damage in rat H9c2 cells assessed as reduction in BNP gene expression by RT-qPCR assay; format: functional, cell-based; conditions: dose 5-20 µM
Rattus norvegicus [5] = test: Cardioprotective activity in myocardial ischemia/reperfusion induced rat injury model assessed as improvement in damaged left ventricular systolic pressure at 5 to 20 mg/kg, iv measured after 30 mins; format: functional, organism-based; conditions: dose 5-20 mg/kg
Rattus norvegicus [6] = test: Cardioprotective activity in iv dosed myocardial ischemia/reperfusion induced rat injury model assessed as reduction in serum CK-MB level pretreated with compound followed by MI/R induction measured after 30 mins; format: functional, organism-based; conditions: dose 5-20 mg/kg
H9c2 [7] = test: Protection against H/R induced damage in rat H9c2 cells assessed as increase in cell viability at 1 to 20 umol/L preincubated for 2 hrs followed by hypoxic reoxygenation induction by CCK-8 assay (reference value: 45.1 +/- 2.1%); format: functional; conditions: dose 1-20 µmol/L; at 1 to 20 µM
H9c2 [8] = test: Cardioprotective activity against MI/R induced rat H9c2 cells assessed as reduction in PP2B protein expression at 5 to 20 uM pretreated with compound followed by MI/R induction by Western blotting assay; format: functional, cell-based; conditions: dose 5-20 µM
Rattus norvegicus [9] = test: Cardioprotective activity in myocardial ischemia/reperfusion induced rat injury model assessed as prevention of average femoral artery blood pressure decrease at 5 to 20 mg/kg, iv measured after 30 mins; format: functional, organism-based; conditions: dose 5-20 mg/kg
Rattus norvegicus [10] = test: Cardioprotective activity in myocardial ischemia/reperfusion induced rat injury model assessed as improvement in cardiac injury at 5 to 20 mg/kg, iv pretreated with compound followed by MI/R induction measured after 30 mins by H and E staining based light microscopic analysis; format: functional, organism-based; conditions: dose 5-20 mg/kg
Rattus norvegicus [11] = test: Cardioprotective activity in myocardial ischemia/reperfusion induced rat injury model assessed as prevention of heart rate decrease at 5 to 20 mg/kg, iv measured after 30 mins; format: functional, organism-based; conditions: dose 5-20 mg/kg
Rattus norvegicus [12] = test: Antioxidant activity in myocardial ischemia/reperfusion induced rat injury model assessed as decrease in MDA level at 5 to 20 mg/kg, iv pretreated with compound followed by MI/R induction measured after 30 mins; format: functional, organism-based; conditions: dose 5-20 mg/kg
H9c2 [13] = test: Cardioprotective activity against H/R induced damage in rat H9c2 cells assessed as upregulation of ADCY5 gene expression at 5 to 20 uM by RT-qPCR assay; format: functional, cell-based; conditions: dose 5-20 µM
H9c2 [14] = test: Cardioprotective activity against MI/R induced rat H9c2 cells assessed as upregulation of ADCY5 protein expression at 5 to 20 uM pretreated with compound followed by MI/R induction by Western blotting assay; format: functional, cell-based; conditions: dose 5-20 µM
H9c2 [15] = test: Cardioprotective activity against H/R induced damage in rat H9c2 cells assessed as reduction in PP2B gene expression by RT-qPCR assay; format: functional, cell-based; conditions: dose 5-20 µM
[16] = Drug accumulation in rat heart at 5 to 20 mg/kg, iv measured after 2 hrs by HPLC analysis; format: ADME, organism-based; conditions: in vivo, dose 5-20 mg/kg
H9c2 [17] = test: Protection against H/R induced necrosis in rat H9c2 cells assessed as reduction in myocardial cell death at 5 to 20 uM preincubated with compound followed by hypoxic reoxygenation induction by Hoechst 33258/PI double staining based fluorescence microscopic analysis; format: functional; conditions: dose 5-20 µM
H9c2 [18] = test: Cardioprotective activity against MI/R induced rat H9c2 cells assessed as upregulation of VEGFA protein expression at 5 to 20 uM pretreated with compound followed by MI/R induction by Western blotting assay; format: functional, cell-based; conditions: dose 5-20 µM
H9c2 [19] = test: Cardioprotective activity against H/R induced damage in rat H9c2 cells assessed as upregulation of VEGFA gene expression at 5 to 20 uM by RT-qPCR assay; format: functional, cell-based; conditions: dose 5-20 µM
Chorioallantoic membrane = test: Angiogenesis activity in chicken embryo chorioallantoic membrane assessed as increase in total number of blood vessels incubated for 132 hrs by CAM assay; format: functional, tissue-based; conditions: Gallus gallus
H9c2 [20] = test: Protection against H/R induced damage in rat H9c2 cells assessed as reduction in CK-MB level at 20 uM preincubated with compound followed by hypoxic reoxygenation induction; format: functional, cell-based
Rattus norvegicus [21] = test: Cardioprotective activity in myocardial ischemia/reperfusion induced rat injury model assessed as reduction in myocardial fiber disruption at 5 to 20 mg/kg, iv pretreated with compound followed by MI/R induction measured after 30 mins by H and E staining based light microscopic analysis; format: functional, organism-based; conditions: dose 5-20 mg/kg
Rattus norvegicus [22] = test: Cardioprotective activity in iv dosed myocardial ischemia/reperfusion induced rat injury model assessed as reduction in serum LDH level pretreated with compound followed by MI/R induction measured after 30 mins; format: functional, organism-based; conditions: dose 5-20 mg/kg
H9c2 [23] = test: Protection against H/R induced damage in rat H9c2 cells assessed as reduction in LDH level at 20 uM preincubated with compound followed by hypoxic reoxygenation induction; format: functional, cell-based
Rattus norvegicus [24] = test: Antioxidant activity in myocardial ischemia/reperfusion induced rat injury model assessed as increase in SOD level at 5 to 20 mg/kg, iv pretreated with compound followed by MI/R induction measured after 30 mins; format: functional, organism-based; conditions: dose 5-20 mg/kg
[25] = Toxicity in rat assessed as change in organ color at 20 to 100 mg/kg, iv measured after 14 days; format: organism-based; conditions: in vivo, 336 h, dose 20-100 mg/kg, time 14 day
H9c2 [26] = test: Cardioprotective activity against MI/R induced rat H9c2 cells assessed as reduction in BNP protein expression at 5 to 20 uM pretreated with compound followed by MI/R induction by Western blotting assay; format: functional, cell-based; conditions: dose 5-20 µM
H9c2 [27] = test: Cardioprotective activity against MI/R induced rat H9c2 cells assessed as upregulation of CREB3L4 protein expression at 5 to 20 uM pretreated with compound followed by MI/R induction by Western blotting assay; format: functional, cell-based; conditions: dose 5-20 µM
H9c2 [28] = test: Antioxidant activity against H/R induced damage in rat H9c2 cells assessed as increase in SOD level preincubated with compound followed by hypoxic reoxygenation induction; format: functional, cell-based; conditions: dose 5-20 µM
[29] = Toxicity in rat assessed as change in organ morphology at 20 to 100 mg/kg, iv measured after 14 days; format: organism-based; conditions: in vivo, 336 h, dose 20-100 mg/kg, time 14 day
H9c2 [30] = test: Antioxidant activity against H/R induced damage in rat H9c2 cells assessed as reduction in MDA level at 5 to 20 uM preincubated with compound followed by hypoxic reoxygenation induction; format: functional, cell-based; conditions: dose 5-20 µM
[31] = Toxicity in rat assessed as change in organ index at 20 to 100 mg/kg, iv measured after 14 days; format: organism-based; conditions: in vivo, 336 h, dose 20-100 mg/kg, time 14 day
Rattus norvegicus [32] = test: Cardioprotective activity in iv dosed myocardial ischemia/reperfusion induced rat injury model assessed as reduction in area of infraction pretreated with compound followed by MI/R induction measured after 30 mins by TTC staining based assay; format: functional, organism-based; conditions: dose 5-20 mg/kg
H9c2 [33] = test: Cardioprotective activity against H/R induced damage in rat H9c2 cells assessed as upregulation of CREB3L4 gene expression at 5 to 20 uM by RT-qPCR assay; format: functional, cell-based; conditions: dose 5-20 µM
Rattus norvegicus [34] = test: Cardioprotective activity in myocardial ischemia/reperfusion induced rat injury model assessed as improvement in damaged left ventricular diastolic pressure at 5 to 20 mg/kg, iv measured after 30 mins; format: functional, organism-based; conditions: dose 5-20 mg/kg
H9c2 [35] = test: Protection against H/R induced damage in rat H9c2 cells assessed as increase in cell viability at 1 to 20 umol/L preincubated for 2 hrs followed by hypoxic reoxygenation induction by CCK-8 assay; format: functional, cell-based; conditions: dose 1-20 µmol/L

O=C(CCC[C@@H]1[C@H]2CCCN3CCC[C@@H](CN1Cc1ccccc1)[C@@H]23)NCCc1ccc(O)cc1
Activity (H9c2 [1]): Non-Toxic

O=C(CCC[C@@H]1[C@H]2CCCN3CCC[C@@H](CN1Cc1ccccc1)[C@@H]23)NC1CCCCC1
Activity (H9c2 [1]): Non-Toxic

O=C(CCC[C@@H]1[C@H]2CCCN3CCC[C@@H](CN1Cc1ccccc1)[C@@H]23)NCCOCCOC(=O)c1sccc1Cl
Activity (H9c2 [2]): Dose-Dependent Effect
Activity (Rattus norvegicus [3]): Active
Activity (H9c2 [4]): Dose-Dependent Effect
Activity (Rattus norvegicus [5]): Active
Activity (Rattus norvegicus [6]): Dose-Dependent Effect
Activity (H9c2 [7]): 93.2%
Activity (H9c2 [8]): Active
Activity (Rattus norvegicus [9]): Active
Activity (Rattus norvegicus [10]): Active
Activity (Rattus norvegicus [11]): Active
Activity (Rattus norvegicus [12]): Active
Activity (H9c2 [13]): Active
Activity (H9c2 [14]): Active
Activity (H9c2 [15]): Dose-Dependent Effect
Drug uptake [16]: Active
Activity (H9c2 [17]): Active
Activity (H9c2 [18]): Active
Activity (H9c2 [19]): Active
Activity (Chorioallantoic membrane): Active
Activity (H9c2 [20]): Active
Activity (Rattus norvegicus [21]): Active
Activity (Rattus norvegicus [22]): Dose-Dependent Effect
Activity (H9c2 [23]): Active
Activity (Rattus norvegicus [24]): Active
Activity [25]: Non-Toxic
Activity (H9c2 [26]): Active
Activity (H9c2 [27]): Active
Activity (H9c2 [28]): Dose-Dependent Effect
Activity [29]: Non-Toxic
Activity (H9c2 [30]): Active
Activity [31]: Non-Toxic
Activity (Rattus norvegicus [32]): Dose-Dependent Effect
Activity (H9c2 [33]): Active
Activity (Rattus norvegicus [34]): Active

O=C(CCC[C@@H]1[C@H]2CCCN3CCC[C@@H](CN1Cc1ccccc1)[C@@H]23)NCCc1c[nH]c2ccccc12
Activity (H9c2 [1]): Non-Toxic

CC(C)NCC(O)COc1ccc(CC(N)=O)cc1 (configuration not stated)
Activity (Rattus norvegicus [10]): Active
Activity (Rattus norvegicus [21]): Active

O=C(CCC[C@@H]1[C@H]2CCCN3CCC[C@@H](CN1Cc1ccccc1)[C@@H]23)NCCC1=CC=CCC1=S
Activity (H9c2 [1]): Non-Toxic

O=C(CCC[C@@H]1[C@H]2CCCN3CCC[C@@H](CN1Cc1ccccc1)[C@@H]23)NC1CC1
Activity (H9c2 [1]): Non-Toxic

O=C1CCC[C@@H]2[C@H]3CCCN4CCC[C@@H](CN12)[C@@H]34 [MATRINE]
Activity (H9c2 [1]): Non-Toxic

O=C(CCC[C@@H]1[C@H]2CCCN3CCC[C@@H](CN1Cc1ccccc1)[C@@H]23)NC1CCCC1
Activity (H9c2 [1]): Non-Toxic

O=C(CCC[C@@H]1[C@H]2CCCN3CCC[C@@H](CN1Cc1ccccc1)[C@@H]23)NC1CCC1
Activity (H9c2 [1]): Non-Toxic

CCOCCNC(=O)CCC[C@@H]1[C@H]2CCCN3CCC[C@@H](CN1Cc1ccccc1)[C@@H]23
Activity (H9c2 [1]): Non-Toxic

O=C(CCC[C@@H]1[C@H]2CCCN3CCC[C@@H](CN1Cc1ccccc1)[C@@H]23)NCCOCCO
Activity (H9c2 [35]): Active

O=C(CCC[C@@H]1[C@H]2CCCN3CCC[C@@H](CN1Cc1ccccc1)[C@@H]23)Nc1cccnn1
Activity (H9c2 [1]): Non-Toxic

— ChEMBL document CHEMBL5550177, “Design and synthesis of matrine derivatives for anti myocardial ischemia-reperfusion injury by promoting angiogenesis” (Bioorg Med Chem, 2024)
